# Active and inactive are the calls of the source.
# Assays:
# Estrogen receptor = molecular target: T1, Estrogen receptor (Homo sapiens, UniProt P03372);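 also: potency for inhibiting coactivator peptide recruitment to the receptor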
# T1 sequence (P03372 whole entry): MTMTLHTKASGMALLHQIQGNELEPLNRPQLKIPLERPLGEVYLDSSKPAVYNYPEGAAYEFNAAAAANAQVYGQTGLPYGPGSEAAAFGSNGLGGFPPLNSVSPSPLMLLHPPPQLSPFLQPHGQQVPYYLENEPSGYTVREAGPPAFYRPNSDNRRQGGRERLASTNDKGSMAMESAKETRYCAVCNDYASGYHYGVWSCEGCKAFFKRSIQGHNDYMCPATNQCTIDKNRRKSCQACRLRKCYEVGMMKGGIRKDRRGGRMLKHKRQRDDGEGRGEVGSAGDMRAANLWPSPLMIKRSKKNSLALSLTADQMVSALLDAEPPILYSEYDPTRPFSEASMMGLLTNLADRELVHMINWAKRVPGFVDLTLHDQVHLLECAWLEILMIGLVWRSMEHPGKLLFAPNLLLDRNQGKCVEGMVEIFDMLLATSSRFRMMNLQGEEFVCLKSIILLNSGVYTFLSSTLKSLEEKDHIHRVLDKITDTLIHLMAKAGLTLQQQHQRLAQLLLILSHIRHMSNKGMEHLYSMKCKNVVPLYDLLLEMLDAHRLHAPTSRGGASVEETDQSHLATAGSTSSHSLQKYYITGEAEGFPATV
# Escherichia coli [1] = assay: microbe, parasite or virus in culture
# [2] = molecular target: Beta-2 adrenergic receptor (Homo sapiens, UniProt P07550); assay: ADRB2 activation measured by internalization – cell-based, FAP fluorogen, flow cytometry, cherry pick 1, dose response (AID 588763); assay type: functional
# Cytochrome P450 2D6 = Cytochrome P450 2D6 (Homo sapiens, UniProt P10635);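 also: CYP2D6 member of a cytochrome P450 panel assay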
# Cytochrome P450 2C19 = Cytochrome P450 2C19 (Homo sapiens, UniProt P33261); assay: Cytochrome panel assay with activity outcomes. Panel member name: p450-cyp2c19 Compounds with AC50 equal or less than 10 uM are considered active; assay type: functional; settings: read-out: AC50
# Cytochrome P450 3A4 = Cytochrome P450 3A4 (Homo sapiens, UniProt P08684);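 also: CYP3A4 tested as one member of a cytochrome P450 panel screen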
# Cytochrome P450 2C9 = Cytochrome P450 2C9 (Homo sapiens, UniProt P11712)
# Escherichia coli [3] = assay: microbe, parasite or virus in culture; remark: listed apart in the source
# [4] = NIH-3T3 fibroblast cytotoxicity, dose response, cytotoxicity control, cell-based, fluorescence, Alamar Blue, secondary assay (AID 2327); assay type: functional;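 also: NIH-3T3 mouse fibroblasts cultured with fluconazole at 8 µg/mL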
# [5] = fluconazole-exposed Candida albicans growth modulators – fluorescence, retest, confirmation (AID 2467); assay type: functional, cell-based
# [6] = Trypanosoma cruzi growth suppression in host cells – NIH3T3 host cells, beta-gal luminescence, confirmation (AID 2044); assay type: functional, cell-based;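 also: intracellular parasites grown in NIH/3T3 mouse fibroblasts as host cells; luminescent beta-galactosidase reporter signal from transgenic T. cruzi replicating inside host cells; inhibitors lower the luminescence signal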
# [7] = molecular target: T2, Serine/threonine-protein phosphatase (Candida dubliniensis (strain CD36 / CBS 7987 / NCPF 3949 / NRRLY-17841) (Yeast), UniProt B9W6M3); assay: blockers of CaCl2-induced CDRE-lacZ signaling – S. cerevisiae, luminescence, secondary, dose response (AID 2388); assay type: functional, cell-based;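 also: yeast reporter cells carrying a calcineurin-responsive lacZ construct stimulated with calcium chloride; luminescent beta-galactosidase reporter signal in whole cells rather than isolated phosphatase activity; potency for inhibition where a drop in reporter signal means calcineurin blockade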
# T2 sequence (B9W6M3 whole entry): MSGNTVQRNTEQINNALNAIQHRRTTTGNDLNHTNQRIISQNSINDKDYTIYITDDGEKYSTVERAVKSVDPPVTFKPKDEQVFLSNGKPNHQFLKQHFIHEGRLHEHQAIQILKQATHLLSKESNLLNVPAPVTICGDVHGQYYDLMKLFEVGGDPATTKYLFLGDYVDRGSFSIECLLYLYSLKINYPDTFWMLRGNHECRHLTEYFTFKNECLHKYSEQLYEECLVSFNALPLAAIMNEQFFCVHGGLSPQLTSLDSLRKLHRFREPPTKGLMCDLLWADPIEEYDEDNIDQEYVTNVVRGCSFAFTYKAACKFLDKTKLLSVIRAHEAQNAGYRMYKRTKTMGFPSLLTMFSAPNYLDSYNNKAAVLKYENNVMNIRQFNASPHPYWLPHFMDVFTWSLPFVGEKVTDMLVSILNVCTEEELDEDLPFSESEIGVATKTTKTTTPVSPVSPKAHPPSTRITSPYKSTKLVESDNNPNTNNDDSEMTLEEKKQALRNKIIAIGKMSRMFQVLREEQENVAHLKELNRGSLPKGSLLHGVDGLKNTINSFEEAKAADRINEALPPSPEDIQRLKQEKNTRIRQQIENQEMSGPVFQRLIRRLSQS
# [8] = NIH3T3 cell viability loss – ATP luminescence, mouse fibroblasts, counter-screen, dose response (AID 2010); assay type: functional, cell-based;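 also: cells exposed to compound for about 90 hours before reading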
# [9] = molecular target: T3, Microphthalmia-associated transcription factor (Homo sapiens, UniProt O75030); assay: reducers of TRPM1 reporter luminescence, concentration series – cell-based, SK-MEL-5, cherry-picked, set 3, MITF inhibitor project, dose response (AID 493073); assay type: functional;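 also: SK-MEL-5 melanoma cells with luciferase driven by the MITF target TRPM1 promoter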
# T3 sequence (O75030 whole entry): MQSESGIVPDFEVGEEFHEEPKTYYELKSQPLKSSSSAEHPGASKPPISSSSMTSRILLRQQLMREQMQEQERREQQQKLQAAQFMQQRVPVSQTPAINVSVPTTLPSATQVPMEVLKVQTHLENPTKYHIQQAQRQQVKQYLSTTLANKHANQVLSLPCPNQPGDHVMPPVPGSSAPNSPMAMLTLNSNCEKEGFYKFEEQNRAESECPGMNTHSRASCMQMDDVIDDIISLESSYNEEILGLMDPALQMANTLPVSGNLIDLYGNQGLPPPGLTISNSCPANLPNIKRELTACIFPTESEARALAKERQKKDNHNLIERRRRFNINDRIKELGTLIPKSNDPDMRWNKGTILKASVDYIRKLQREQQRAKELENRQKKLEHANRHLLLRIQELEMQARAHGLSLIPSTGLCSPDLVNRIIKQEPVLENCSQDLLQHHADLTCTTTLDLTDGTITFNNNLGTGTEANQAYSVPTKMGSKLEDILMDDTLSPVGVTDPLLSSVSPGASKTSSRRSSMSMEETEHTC
# INS1 = assay: INS-1E survival protection against cytokine death – cell-based, luminescence, retest, dose response (AID 449756); assay type: functional; settings: Rattus norvegicus;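 also: cell death triggered by IL-1 beta plus TNF-alpha plus IFN-gamma mixture; protective hits raise ATP signal compared with cytokine alone wells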
# [10] = molecular target: ATP-dependent molecular chaperone HSP82 (Candida albicans (strain WO-1) (Yeast), UniProt C4YTQ8); assay: steroid-induced GRE reporter decrease in yeast – S. cerevisiae, luminescence, Hsp90 inhibitor project, dose response (AID 2400); assay type: functional, cell-based;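 also: beta-galactosidase luminescence from glucocorticoid response element reporter as proxy for Hsp90 function; inhibitor potency where signal loss means Hsp90 inhibition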
# A-375 = assay: proliferation inhibition in MITF-low A375 cells – cell-based, cherry-pick samples, set 2, counter-screen for MITF modulator project, dose response (AID 540335); assay type: functional; settings: Homo sapiens
# [11] = molecular target: SWI/SNF-related matrix-associated actin-dependent regulator of chromatin subfamily A member 2 (Homo sapiens, UniProt P51531); assay: Luminescence-based cell-based high throughput dose response assay to identify activators of the function of SWI/SNF related, matrix associated, actin dependent regulator of chromatin, subfamily a, member 2 (SMARCA2, BRM).; assay type: functional
# [12] = Counterscreen for activators of the function of SWI/SNF related, matrix associated, actin dependent regulator of chromatin, subfamily a, member 2 (SMARCA2, BRM): Luminescence-based cell-based high throughput dose response assay to identify non-selective compounds using the VP16 reporter assay.; assay type: functional
# [13] = molecular target: T4, DNA repair protein RAD52 homolog (Homo sapiens, UniProt P43351); assay type: functional, biochemical
# T4 sequence (P43351 whole entry): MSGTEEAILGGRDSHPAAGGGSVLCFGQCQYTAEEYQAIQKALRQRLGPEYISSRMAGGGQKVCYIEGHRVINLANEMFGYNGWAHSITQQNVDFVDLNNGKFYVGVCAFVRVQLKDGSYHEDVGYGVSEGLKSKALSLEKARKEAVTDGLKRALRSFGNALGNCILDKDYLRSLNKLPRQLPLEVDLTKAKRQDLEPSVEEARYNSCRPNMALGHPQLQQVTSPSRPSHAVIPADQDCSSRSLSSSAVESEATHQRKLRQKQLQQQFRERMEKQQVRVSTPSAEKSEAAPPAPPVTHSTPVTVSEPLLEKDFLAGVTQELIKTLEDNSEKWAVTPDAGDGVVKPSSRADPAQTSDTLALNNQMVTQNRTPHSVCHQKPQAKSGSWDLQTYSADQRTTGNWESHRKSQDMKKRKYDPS
# Chain of Cytochrome P450 2D6 (P10635 whole entry): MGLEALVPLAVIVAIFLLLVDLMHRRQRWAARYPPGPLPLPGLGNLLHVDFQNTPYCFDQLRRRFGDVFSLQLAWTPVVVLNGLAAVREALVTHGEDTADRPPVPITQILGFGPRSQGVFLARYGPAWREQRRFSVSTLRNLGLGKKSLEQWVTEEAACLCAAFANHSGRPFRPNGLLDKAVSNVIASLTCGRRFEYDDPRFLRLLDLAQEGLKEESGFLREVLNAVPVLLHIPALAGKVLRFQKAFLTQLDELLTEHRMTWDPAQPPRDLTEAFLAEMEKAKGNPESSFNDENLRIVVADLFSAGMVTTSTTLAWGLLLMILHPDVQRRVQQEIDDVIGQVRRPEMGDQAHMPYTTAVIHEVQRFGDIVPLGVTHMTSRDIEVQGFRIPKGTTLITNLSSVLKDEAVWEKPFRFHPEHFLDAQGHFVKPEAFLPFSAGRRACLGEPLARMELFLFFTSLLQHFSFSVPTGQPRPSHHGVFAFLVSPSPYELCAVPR
# Chain of SWI/SNF-related matrix-associated actin-dependent regulator of chromatin subfamily A member 2 (P51531 whole entry): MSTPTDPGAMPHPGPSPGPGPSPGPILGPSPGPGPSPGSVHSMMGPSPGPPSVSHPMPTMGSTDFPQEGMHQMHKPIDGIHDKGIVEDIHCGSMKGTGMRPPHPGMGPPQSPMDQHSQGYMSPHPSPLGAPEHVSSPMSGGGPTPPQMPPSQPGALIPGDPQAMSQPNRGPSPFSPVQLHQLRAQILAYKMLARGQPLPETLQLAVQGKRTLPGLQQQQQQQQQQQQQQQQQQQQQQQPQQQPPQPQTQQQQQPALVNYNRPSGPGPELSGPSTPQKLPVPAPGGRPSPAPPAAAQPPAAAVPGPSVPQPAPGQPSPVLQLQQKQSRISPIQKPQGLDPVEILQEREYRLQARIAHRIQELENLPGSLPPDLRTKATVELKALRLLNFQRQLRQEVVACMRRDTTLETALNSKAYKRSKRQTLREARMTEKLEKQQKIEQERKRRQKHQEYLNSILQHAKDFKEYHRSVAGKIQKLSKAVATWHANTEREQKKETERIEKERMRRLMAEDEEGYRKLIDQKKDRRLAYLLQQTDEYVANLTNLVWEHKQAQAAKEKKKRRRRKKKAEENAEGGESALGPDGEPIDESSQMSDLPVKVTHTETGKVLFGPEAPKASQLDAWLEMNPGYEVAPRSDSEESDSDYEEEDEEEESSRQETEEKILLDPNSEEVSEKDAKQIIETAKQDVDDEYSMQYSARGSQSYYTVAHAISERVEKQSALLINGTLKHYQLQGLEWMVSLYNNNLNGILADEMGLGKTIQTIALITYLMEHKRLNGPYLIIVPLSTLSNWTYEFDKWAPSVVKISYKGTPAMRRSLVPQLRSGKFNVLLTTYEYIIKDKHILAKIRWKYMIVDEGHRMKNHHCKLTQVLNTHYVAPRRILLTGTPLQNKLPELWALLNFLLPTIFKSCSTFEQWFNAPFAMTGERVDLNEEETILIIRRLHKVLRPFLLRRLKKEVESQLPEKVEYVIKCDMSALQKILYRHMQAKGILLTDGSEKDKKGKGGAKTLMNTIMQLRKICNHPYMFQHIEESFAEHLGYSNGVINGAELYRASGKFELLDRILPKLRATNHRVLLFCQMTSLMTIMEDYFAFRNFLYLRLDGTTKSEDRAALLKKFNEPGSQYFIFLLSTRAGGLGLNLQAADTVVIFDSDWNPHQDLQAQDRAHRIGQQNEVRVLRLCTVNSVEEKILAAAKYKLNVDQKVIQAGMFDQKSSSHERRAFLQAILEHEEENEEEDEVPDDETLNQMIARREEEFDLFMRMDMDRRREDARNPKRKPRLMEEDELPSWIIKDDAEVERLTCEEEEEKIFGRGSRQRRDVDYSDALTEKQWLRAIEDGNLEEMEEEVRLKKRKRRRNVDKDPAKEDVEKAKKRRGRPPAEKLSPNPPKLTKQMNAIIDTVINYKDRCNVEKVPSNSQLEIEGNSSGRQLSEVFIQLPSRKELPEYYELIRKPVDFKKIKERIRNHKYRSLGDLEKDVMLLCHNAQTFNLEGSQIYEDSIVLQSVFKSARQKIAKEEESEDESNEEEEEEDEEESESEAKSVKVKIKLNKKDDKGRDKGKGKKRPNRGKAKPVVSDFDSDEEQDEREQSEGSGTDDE
# Chain of Cytochrome P450 3A4 (P08684 whole entry): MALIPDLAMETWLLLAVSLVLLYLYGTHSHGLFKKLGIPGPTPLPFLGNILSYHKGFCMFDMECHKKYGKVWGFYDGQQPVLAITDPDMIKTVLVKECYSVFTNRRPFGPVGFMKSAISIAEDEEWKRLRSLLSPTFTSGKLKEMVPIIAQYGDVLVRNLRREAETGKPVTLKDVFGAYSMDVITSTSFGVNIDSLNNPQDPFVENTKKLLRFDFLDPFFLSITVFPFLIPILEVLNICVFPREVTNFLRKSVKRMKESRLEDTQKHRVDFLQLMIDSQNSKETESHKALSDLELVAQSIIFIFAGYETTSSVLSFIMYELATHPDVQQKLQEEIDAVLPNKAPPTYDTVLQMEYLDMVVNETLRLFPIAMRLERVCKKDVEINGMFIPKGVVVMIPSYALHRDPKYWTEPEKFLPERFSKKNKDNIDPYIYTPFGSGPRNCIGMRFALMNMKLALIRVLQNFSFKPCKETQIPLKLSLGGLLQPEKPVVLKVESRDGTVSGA
# Chain of Beta-2 adrenergic receptor (P07550 whole entry): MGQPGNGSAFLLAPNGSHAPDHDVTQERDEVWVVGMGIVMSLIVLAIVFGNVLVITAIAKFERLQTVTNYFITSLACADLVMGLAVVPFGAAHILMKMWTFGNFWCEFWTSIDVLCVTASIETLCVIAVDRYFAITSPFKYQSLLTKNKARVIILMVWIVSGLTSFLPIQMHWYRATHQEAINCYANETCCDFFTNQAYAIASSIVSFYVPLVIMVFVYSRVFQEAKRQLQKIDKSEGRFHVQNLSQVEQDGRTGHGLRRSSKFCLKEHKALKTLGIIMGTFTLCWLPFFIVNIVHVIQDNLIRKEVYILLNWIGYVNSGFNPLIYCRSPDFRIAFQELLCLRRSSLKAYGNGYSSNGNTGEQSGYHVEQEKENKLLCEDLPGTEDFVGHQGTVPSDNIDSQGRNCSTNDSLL
# Chain of Cytochrome P450 2C9 (P11712 whole entry): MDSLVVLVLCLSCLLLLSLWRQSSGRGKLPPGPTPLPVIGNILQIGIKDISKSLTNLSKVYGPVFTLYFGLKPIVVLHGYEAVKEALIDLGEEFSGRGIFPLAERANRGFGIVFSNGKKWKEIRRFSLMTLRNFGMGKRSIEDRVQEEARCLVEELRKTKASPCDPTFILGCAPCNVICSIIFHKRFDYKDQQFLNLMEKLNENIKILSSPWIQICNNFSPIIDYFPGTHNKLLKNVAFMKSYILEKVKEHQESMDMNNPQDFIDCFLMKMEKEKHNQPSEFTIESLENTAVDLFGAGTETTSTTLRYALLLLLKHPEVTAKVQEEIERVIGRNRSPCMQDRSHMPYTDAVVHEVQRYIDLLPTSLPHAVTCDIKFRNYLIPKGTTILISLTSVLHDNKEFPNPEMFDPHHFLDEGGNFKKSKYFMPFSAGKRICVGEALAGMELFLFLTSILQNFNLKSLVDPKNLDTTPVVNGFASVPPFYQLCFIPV
# Chain of Cytochrome P450 2C19 (P33261 whole entry): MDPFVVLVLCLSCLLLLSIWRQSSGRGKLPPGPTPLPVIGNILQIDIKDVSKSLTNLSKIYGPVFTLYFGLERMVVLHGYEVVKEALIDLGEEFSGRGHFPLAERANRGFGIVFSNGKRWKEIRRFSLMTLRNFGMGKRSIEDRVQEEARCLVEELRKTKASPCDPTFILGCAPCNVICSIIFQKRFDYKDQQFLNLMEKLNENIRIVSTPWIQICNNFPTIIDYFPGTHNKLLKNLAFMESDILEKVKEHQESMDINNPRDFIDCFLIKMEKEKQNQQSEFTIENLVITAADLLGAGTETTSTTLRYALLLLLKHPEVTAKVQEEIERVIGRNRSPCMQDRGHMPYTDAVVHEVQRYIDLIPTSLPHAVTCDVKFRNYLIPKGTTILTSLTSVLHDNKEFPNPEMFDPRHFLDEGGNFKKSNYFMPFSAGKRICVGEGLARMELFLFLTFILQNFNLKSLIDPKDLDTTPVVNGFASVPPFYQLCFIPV
# Chain of ATP-dependent molecular chaperone HSP82 (C4YTQ8 whole entry): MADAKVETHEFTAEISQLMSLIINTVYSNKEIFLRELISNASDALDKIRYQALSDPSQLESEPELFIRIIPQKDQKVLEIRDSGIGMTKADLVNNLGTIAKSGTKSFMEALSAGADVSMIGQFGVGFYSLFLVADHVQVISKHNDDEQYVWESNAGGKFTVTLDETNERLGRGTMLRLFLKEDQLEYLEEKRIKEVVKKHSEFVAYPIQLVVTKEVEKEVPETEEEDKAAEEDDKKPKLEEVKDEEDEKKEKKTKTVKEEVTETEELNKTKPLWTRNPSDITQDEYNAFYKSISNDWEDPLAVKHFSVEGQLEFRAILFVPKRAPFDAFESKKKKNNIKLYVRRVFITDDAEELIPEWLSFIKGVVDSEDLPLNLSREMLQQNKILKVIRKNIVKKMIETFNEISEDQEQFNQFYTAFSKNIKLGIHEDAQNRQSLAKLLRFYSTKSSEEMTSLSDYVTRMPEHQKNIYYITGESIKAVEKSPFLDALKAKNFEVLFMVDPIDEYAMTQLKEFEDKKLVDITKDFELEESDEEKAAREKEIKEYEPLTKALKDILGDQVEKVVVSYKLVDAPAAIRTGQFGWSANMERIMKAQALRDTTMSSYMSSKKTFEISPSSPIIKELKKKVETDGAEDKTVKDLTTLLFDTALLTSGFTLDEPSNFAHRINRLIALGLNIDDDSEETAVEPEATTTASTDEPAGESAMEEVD
smiles,measurement,setting,value
Cc1occc1C(=O)NCc1cccc(CNC(=O)c2ccoc2C)c1,IC50,Estrogen receptor,19.7 µM (active)
same,AC50,Escherichia coli [1],21.6 µM (active)
COc1ccc(-c2cc(C(F)(F)F)nc(S(=O)(=O)CCC(=O)N3CCOCC3)n2)cc1,EC50,[2],25.3 µM (inactive)
C#CCCCO/N=C1/[C@H]2O[C@@H]2[C@@H](O)[C@H]2[C@H]1CCn1c(=O)n(C)c(=O)n12,AC50,Cytochrome P450 2D6,inconclusive
CCN(CC)S(=O)(=O)N1CCC(C(=O)NC2CCCC2)CC1,AC50,Cytochrome P450 2C19,39.8 µM (inconclusive)
same,AC50,Cytochrome P450 3A4,15.8 µM (inconclusive)
same,AC50,Cytochrome P450 2C9,3.16 µM (inconclusive)
same,AC50,Escherichia coli [3],26.2 µM (active)
CCOC(=O)c1c(NC(=O)/C=C/c2ccc3c(c2)OCO3)sc(C)c1C,AC50,Cytochrome P450 2D6,inconclusive
CC(=O)Nc1ccc(Nc2c3ccccc3nc3ccccc23)cc1,EC50,[4],10.5 µM (active)
same,EC50,[5],1.32 µM (active)
same,EC50,[6],0.556 µM (active)
same,EC50,[7],> 180 µM (inactive)
same,EC50,[8],0.536 µM (active)
same,AC50,[9],4.9 µM (active)
same,AC50,INS1,3.71 µM (active)
same,EC50,[10],> 150 µM (inactive)
same,AC50,A-375,13.8 µM (active)
same,EC50,[11],> 91.1 µM (inactive)
same,EC50,[12],> 91.1 µM (inactive)
same,AC50,[13],2.21 µM (active)

# Reference: ChEMBL document CHEMBL1201862, “PubChem BioAssay data set” (2004)
